Where no end group is shown, it is not given here. [ ]: non-standard residue; d: D form. pGlu = O=C1CC[C@@H](C(=O)O)N1
Tests used:
IMGE-5 cells [1] = assay: IMGE-5 cell proliferation, [3H]-thymidine incorporation; format: cell-based, mice; conditions: for Inhibition of Ggly-stimulated IMGE-5 cell proliferation by iron chelator: [3H]-thymidine incorporation (FIG. 10); for S (%), maximum % stimulation: IMGE cells, thymidine uptake, best fit at saturating concentration; for Effect of DFO on proliferation induced by the peptide: peptide 100 nM, plus or minus 1 μM DFO, [3H]-thymidine incorporation
Procedure: In some cases cell proliferation was also measured by [^3H]-thymidine incorporation as described previously (Oiry et al., 2000). Briefly, IMGE-5 cells (10^5/well) were seeded in 24-well plates in medium containing 10% FBS and 1 unit/ml γ-interferon. On the next day cells were serum starved and shifted to 39° C. for 24 hr. Cells were then incubated with or without various compounds at 39° C. for 17 h in medium supplemented with 0.2% bovine serum albumin only. Cells were incubated with 0.5 μCi of [^3H] thymidine in the same medium at 39° C. for 4 h, washed twice with PBS (2.7 mM KCl, 142 mM NaCl, 1.5 mM KH2PO4, 10 mM Na2HPO4, pH 6.95) containing 0.2% bovine serum albumin and incubated at 4° C. for 30 min with 5% trichloroacetic acid. Finally cells were washed with 95% ethanol to remove unincorporated [^3H] thymidine, and lysed with 1 M NaOH. Lysates were transferred to counting vials and neutralized with 1M HCl. The radioactivity of each lysate was counted in a β-counter after the addition of 10 ml of Pico-fluor 40 solution (Packard, Meriden, Conn.).
In some experiments IMGE-5 cells were seeded in a 96-well plate at a density of 3-5×10^3 cells/well in.DMEM containing 10% FBS, and cultured at 33° C.. On the following day, the cells were serum-starved at 33° C. for 24 h. […] The cells were cultured at 39° C. for 24 h, and then harvested using a NUNC cell harvester. The amount of ^3H-thymidine incorporated through DNA synthesis was detected with a β-counter (Packard, Meriden, Conn.). […]

IMGE-5 cells [2] = assay: IMGE-5 cell proliferation, MTT assay; format: cell-based, mice; conditions: MTT assay; peptides shown at 1 nM (FIGS. 7A, 8A)
Procedure: (§1) The IMGE-5 cell line was established from the gastric mucosa of mice transgenic for a temperature-sensitive mutant of the SV40 large T antigen (Hollande et al, 2001). IMGE-5 cells were generally grown at 33° C. in DMEM containing 1 unit/ml γ-interferon, 10% FBS, 100 U/ml penicillin, and 100 μg/ml streptomycin (permissive conditions). For all experiments, cells were transferred to 39° C. in the same medium without […] (non-permissive conditions), where they display differentiated characteristics such as expression of functional adherens and tight junctions. All experiments have been performed on cells between passages 20 and 35.
A colorimetric assay was used to measure cell proliferation. Briefly, IMGE-5 cells were seeded in a 96-well plate at a density of 10^4 cells/well in DMEM containing 10% FBS and antibiotics. The following day, cells were synchronized in Go by incubation for 24 h in the same medium lacking FBS. The medium was replaced the next day with fresh medium containing 1% FBS and antibiotics and the peptides under investigation, and incubation was continued for 72 h. 15 μl of 5 mg/ml 3-(4,5-dimethylthiazol-2-yl)-2-5-diphenyltetrazolium bromide (MTT, Sigma, St Louis Mo.) was added per well, and the plate was incubated at 37° C. for 4 h before the medium was discarded. 200 μl 40 mM HCl in isopropanol was added to lyse the cells, and the absorbance at 570 nm was read on a BioRad Model 550 Microplate reader (BioRad, Hercules, Calif.).

IMGE-5 cells [3] = assay: Wound healing / cell migration assay; format: cell-based, mice; conditions: wound healing assay; fragments and mutants shown at 1 nM (FIGS. 7B, 8B)
Procedure: as §1
In order to assess the effects of different stimuli on cell migration, wound healing experiments were performed as detailed elsewhere (Hollande et al, 1997). In brief, IMGE-5 cells were grown in 12-well plates in DMEM at 33° C. until they reached 80% confluence, then shifted to 39° C. and starved of serum for 24 h. The confluent monolayer was wounded using a 20 μl-pipette tip, and cells were then washed 3 times with phosphate-buffered saline (PBS: 2.7 mM KCl, 1.5 MM KH2PO4, 142 mM NaCl, and 10 mM Na2HPO4, pH 6.95) and treated with or without different compounds in DMEM with antibiotics. Morphology and migration of cells were observed and photographed immediately, and after treatment for 17 and 24 h. Wound width was measured at six different positions on the 24 h photographs, and averages calculated.

[4] = Quenching of peptide tryptophan fluorescence by ferric ions (stoichiometry, apparent Kd); format: binding; conditions: 10 mM sodium acetate pH 4.0, 100 mM NaCl, 0.005% Tween 20; mean ± S.E.; read-out: Kd (μM), apparent dissociation constant for ferric ions
Procedure: The tryptophan fluorescence of peptide solutions was measured in 3 mL quartz cuvettes thermostated at […], with a Spex Fluorolog-2 spectrofluorimeter (Spex Industries, Edison, N.J.), with the excitation and emission wavelengths set at 290 and 345 nm, respectively. The quenching of tryptophan fluorescence induced by the binding of metal ions was used to calculate the fraction of binding sites occupied, fa: fa=(yf−y)/(yf−yb) where y is the fluorescence signal at a given concentration of metal ions and yb and yf are the signals when the binding sites are fully occupied and unoccupied, respectively (Winzor et al, 1995). The stoichiometry, p, and apparent dissociation constant, Kd, were then obtained, using the program Sigmastat (Jandel Scientific, San Rafael, Calif.), from the intercept and slope of a linear regression of the data transformed as described by Winzor and Sawyer (1995) in terms of the equation Cs/fa=pCa+Kd/(1−fa) where Cs is the total concentration of metal ions, and Ca is the total concentration of glycine-extended gastrin17. For the bismuth binding studies, the data was fitted by non-linear regression with the program Sigmaplot (Jandel Scientific, San Rafael, Calif.) to the equations for models with one binding site or two binding sites with identical affinities: fa=x/(Kd1+x) or to the model with two binding sites with different affinities: fa=(Kd1·x+Kd2·x+2x^2)/2(Kd1·Kd2+Kd1·x+Kd2·x+x^2) where x is the concentration of free metal ions, Kd1 is the first site dissociation constant and Kd2 is the second site dissociation constant. For the one-site model the value of x at any given total concentration of metal ions was obtained by exact solution of the appropriate quadratic (Malby et al, 2001). For the two-site models the value of x was obtained by an iterative Newton-Raphson procedure (Linse et al, 1991). Absorption Spectroscopy
The tryptophan fluorescence of progastrin6-80, glycine-extended gastrin17 and related peptides was measured in the presence of increasing concentrations of ferric ions in 10 mM sodium acetate, pH 4.0, 100 mM NaCl, 0.005% Tween 20. […] Values from the indicated number of independent experiments were combined to obtain the mean values (±S.E.) presented above. No binding of ferric ions to Ggly1-4 or Ggly12-18 was observed.
The tryptophan fluorescence of amidated gastrin17 and related peptides was measured in the presence of increasing concentrations of ferric ions at pH 4.0 (8). Values of the stoichiometry and the apparent dissociation constant (Kd) were obtained from linear transformations of the data presented in FIG. 20A by least squares fitting. Values from the indicated number of independent experiments were combined to obtain the mean values (±S.E.) presented above.

Compound | S (%), maximum % stimulation (IMGE-5 cells [1]) [%] | Effect of DFO on proliferation induced by the peptide (IMGE-5 cells [1]) | Stimulation of IMGE-5 cell proliferation (IMGE-5 cells [2]) | Stimulation of IMGE-5 cell migration (IMGE-5 cells [3]) | other results
Oc1c(I)cc(Cl)c2cccnc12 [clioquinol] |  |  |  |  | Inhibition of Ggly-stimulated IMGE-5 cell proliferation by iron chelator (IMGE-5 cells [1]): inhibited Ggly-stimulated IMGE-5 cell proliferation in a dose-dependent manner
COc1cccc2c1C(=O)c1c(O)c3c(c(O)c1C2=O)C[C@@](O)(C(=O)CO)C[C@@H]3O[C@H]1C[C@H](N)[C@H](O)[C@H](C)O1 [doxorubicin] |  |  |  |  | Inhibition of Ggly-stimulated IMGE-5 cell proliferation by iron chelator (IMGE-5 cells [1]): inhibited Ggly-stimulated IMGE-5 cell proliferation in a dose-dependent manner
EEEEE [Peptide E5] | 22.5 | no significant reduction |  |  | 
EEEEEA [Peptide E5A] | 29.1 | no significant reduction |  |  | 
EEEEEAY [Peptide E5AY] | 36.1 | significantly blocked by DFO |  |  | 
Ggly1-4: fragment of Ggly, residues 1-4, SEQ ID NO:6 ([pGlu]GPW; listed as Homo sapiens) |  |  | neither of these fragments stimulated proliferation | Nor did they stimulate migration | 
Ggly12-18: C-terminal heptapeptide of Ggly, SEQ ID NO:8 (YGWMDFG; listed as Homo sapiens) |  |  | neither of these fragments stimulated proliferation | Nor did they stimulate migration | 
GglyE6A: Ggly mutant, Glu6 replaced by Ala, SEQ ID NO:10 ([pGlu]GPWLAEEEEAYGWMDFG; ends and bridges not checked) |  |  | to the same extent as Ggly | to the same extent as Ggly | Kd [4]: 0.23 ± 0.02 µM
LEEEEE [LE5] | 29.9 | no significant reduction |  |  | 
LEEEEEA [LE5A] | 34.7 | lower in the presence of DFO, although the reduction did not reach significance |  |  | 

Source: patent publication US20070031511A1, “Method of treatment” (priority 2003, published 2007)
